Reference: PMC12751012, “Nanoscale Direct-to-Biology Optimization and Structural Insights into Selective S. aureus TrmD Inhibitors” (Journal of Medicinal Chemistry, 2025)

Molecular target: T1, S. aureus TrmD (Staphylococcus aureus, UniProt Q2FZ43)
T1 construct: made in house; host or cells: E. coli BL21
T1 sequence (Q2FZ43 1-245): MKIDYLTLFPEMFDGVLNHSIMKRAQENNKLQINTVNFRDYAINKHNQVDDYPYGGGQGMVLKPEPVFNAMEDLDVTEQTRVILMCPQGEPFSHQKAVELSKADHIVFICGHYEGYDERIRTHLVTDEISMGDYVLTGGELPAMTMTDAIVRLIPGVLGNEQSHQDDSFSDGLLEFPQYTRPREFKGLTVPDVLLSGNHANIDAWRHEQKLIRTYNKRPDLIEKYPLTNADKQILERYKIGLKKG
Assay: nanoSAR direct-to-biology FP displacement screening of crude triazoles
Assay type: binding
Conditions: crude triazole at 1 μM, assuming full conversion, 500 nM TrmD, 10 nM tracer 4; for inhibition at 1 µM: read-out: % displaced tracer
Source text: Next, we conducted an S. aureus TrmD-targeting nanoSAR study. For this, alkyne 7 was reacted on a 96 nmol scale with an in-house diversity-oriented azide library (N = 320, mean pairwise Tanimoto similarity = 0.11) designed to cover a large chemical fragment space, generating a panel of 320 crude triazoles ready for FP assay investigation. The composition of the azide library is designed to be chemically diverse in several categories, including physicochemical properties such as polar surface area, lipophilicity, and the number of hydrogen bond donors and acceptors, as well as structural features like the number of aromatic rings (Figure S23). A complete list of chemical structures included in the azide library can be found in Table S4. In situ reaction conditions for CuAAC were adapted from Gehrtz et al., utilizing CuSO4, which is reduced in situ to Cu(I) by sodium ascorbate and stabilized by TBTA. Degassed water and DMSO (1:1) were used as solvents to prevent the oxidation from Cu(I) to Cu(II). For the synthesis of the triazole library, a master mix was prepared, containing all reaction components except the azides. All reactions were started by the addition of the respective azide in 24 μL at a final product concentration of 4 mM (96 nmol). Reaction mixtures were incubated for 16 h at room temperature and under an argon atmosphere in sealed 96-well plates.
For FP assay screening, we used 500 nM of S. aureus TrmD and 10 nM of tracer 4 in a total volume of 40 μL in 96-well plates. We performed control measurements and defined 10 nM of tracer 4 in buffer as 100% displacement and the DMSO control as 0% tracer displacement. […] The results of the FP screening were visualized in a waterfall plot and plate-based heatmaps (Figure , Figure S3).
Fluorescence polarization (FP) assays were performed as follows. The assays for H. influenzae TrmD have been described previously. All assays were conducted in technical triplicate using black 96-well half area plates. For the FP assays, a tracer (20 nM Cy5TPD for E. coli and H. influenzae TrmD, 10 nM tracer 4 for S. aureus TrmD) was mixed with the respective enzyme (2 μM E. coli TrmD, 2 μM H. influenzae TrmD, 500 nM S. aureus TrmD) in buffer (E. coli and H. influenzae TrmD: 50 mM HEPES, 500 mM NaCl, 5% Glycerol, pH 7.5, S. aureus TrmD: 40 mM Tris HCl, 100 mM NaCl, 10 mM MgCl2, 5% Glycerol, pH 7.5). The compounds were added in varying concentrations for K D-value determination. […] The Z-factor for tracer 4 was determined by measuring 48 replicates of the free tracer (positive controls, PC) and 48 replicates of a mixture of enzyme and tracer (negative controls, NC). The Z-factor is defined in terms of the means (μ) and standard deviations (σ) of the positive and negative controls and calculated as Z = 1–(3*(σnc + σpc)/(μnc–μpc)). […] Polarization values (mP) were determined from polarization-specific parallel and orthogonal fluorescence intensities. K D-values were calculated in GraphPad Prism 8.0.1 using the four-parameter Hill equation: y(% tracer bound) = bottom + ([ligand]-slope) × (top–bottom)/([ligand]-slope + K Dslope).
A commercial azide diversity library (Enamine) containing 320 azides at a concentration of 100 mM in DMSO in a 96-well tube rack was employed for this nanoSAR study. For the reaction of the azides with alkyne 7 via CuAAC, a master mix was prepared. […] The solvents were degassed with argon to avoid oxidation of the copper(I) during the reaction. To each well of a 96-well PCR plate (Applied Biosystems MicroAmp) were added 23 μL of the master mix and 1 μL of the 100 mM azide stock. The final concentrations in the Mastermix were: 8.7 mM sodium ascorbate (8.3 mM in reaction well), 1.1 mM TBTA (1.0 mM in reaction well), 4.3 mM 7 (4.1 mM in reaction well), 1.3 mM CuSO4×5 H2O (1.2 mM in reaction well).

Compound	inhibition at 1 µM [%]	% displaced tracer [%]
CCc1nc(Cn2cc(-c3c[nH]c4nc[nH]c(=O)c34)nn2)cs1 [Compound 01E03, S1C(=NC(=C1)CN2N=NC(C=3C=4C(=O)NC=NC4NC3)=C2)CC]	75	
CN(C)c1ccc(-n2cc(-c3c[nH]c4nc[nH]c(=O)c34)nn2)cc1 [Compound 01E01, O=C1NC=NC=2NC=C(C=3N=NN(c4ccc(N(C)C)cc4)C3)C12]	33	
O=c1[nH]cnc2[nH]cc(-c3cn(CCCN4CCCC4)nn3)c12 [Compound 03H05, O=C1NC=NC=2NC=C(C=3N=NN(C3)CCC[NH+]4CCCC4)C12]	40	
COc1ccc(-n2cc(-c3c[nH]c4nc[nH]c(=O)c34)nn2)cc1OC [Compound 01E06, O=C1NC=NC=2NC=C(C=3N=NN(c4cc(OC)c(OC)cc4)C3)C12]	19	
O=c1[nH]cnc2[nH]cc(-c3cn(C[C@@H]4CCOC4)nn3)c12 [Compound 02D06, O=C1NC=NC=2NC=C(C=3N=NN(C3)C[C@H]4COCC4)C12]	26	
Cn1cc(-n2cc(-c3c[nH]c4nc[nH]c(=O)c34)nn2)cn1 [Compound 01E10, O=C1NC=NC=2NC=C(C=3N=NN(C=4C=NN(C4)C)C3)C12]	17	
O=c1[nH]cnc2[nH]cc(-c3cn(Cc4ncoc4C4CCC4)nn3)c12 [Compound 02F08, O=C1NC=NC=2NC=C(C=3N=NN(C3)CC=4N=COC4C5CCC5)C12]	61	
NS(=O)(=O)c1ccc(-n2cc(-c3c[nH]c4nc[nH]c(=O)c34)nn2)cc1 [Compound 02B06, S(=O)(=O)(N)c1ccc(N2N=NC(C=3C=4C(=O)NC=NC4NC3)=C2)cc1]	17	
COc1ccccc1[C@H](O)Cn1cc(-c2c[nH]c3nc[nH]c(=O)c23)nn1 [Compound 03G07, O=C1NC=NC=2NC=C(C=3N=NN(C3)C[C@@H](O)c4c(OC)cccc4)C12]	37	
O=c1[nH]cnc2[nH]cc(-c3cn([C@H]4C=CCCCC4)nn3)c12 [Compound 04B01, O=C1NC=NC=2NC=C(C=3N=NN(C3)[C@H]4C=CCCCC4)C12]	32	
O=c1[nH]cnc2[nH]cc(-c3cn([C@H]4CC5(CCCC5)Oc5ccc(Cl)cc54)nn3)c12 [Compound 02C05, Clc1cc2c(OC3(C[C@@H]2N4N=NC(C=5C=6C(=O)NC=NC6NC5)=C4)CCCC3)cc1]	55	
O=c1[nH]cnc2[nH]cc(-c3cn(CC4CCNCC4)nn3)c12 [Compound 02C09, O=C1NC=NC=2NC=C(C=3N=NN(C3)CC4CC[NH2+]CC4)C12]	79	
N#Cc1cnn(CCn2cc(-c3c[nH]c4nc[nH]c(=O)c34)nn2)c1 [Compound 02G10, O=C1NC=NC=2NC=C(C=3N=NN(C3)CCN4N=CC(C#N)=C4)C12]	38	
O=C(NCCCn1cc(-c2c[nH]c3nc[nH]c(=O)c23)nn1)c1c[nH]nn1 [Compound 02B11, O=C1NC=NC=2NC=C(C=3N=NN(C3)CCCNC(=O)C=4N=NNC4)C12]	10	
Cc1cc(Cn2cc(-c3c[nH]c4nc[nH]c(=O)c34)nn2)no1 [Compound 03F02, O=C1NC=NC=2NC=C(C=3N=NN(C3)CC4=NOC(=C4)C)C12]	35	
Cc1ccccc1Cn1cc(-c2c[nH]c3nc[nH]c(=O)c23)nn1 [Compound 02G09, O=C1NC=NC=2NC=C(C=3N=NN(C3)Cc4c(cccc4)C)C12]	75	
O=c1[nH]cnc2[nH]cc(-c3cn(S(=O)(=O)c4ccc5c(c4)CCO5)nn3)c12 [Compound 02A06, O=S(C1=CC2=C(OCC2)C=C1)(N3N=NC(C4=CNC(N=CN5)=C4C5=O)=C3)=O]	-1.83	

Compound	inhibition at 1 µM [%]	% displaced tracer [%]
O=c1[nH]cnc2[nH]cc(-c3cn([C@@H]4C[C@H]5CC[C@@H](C4)N5)nn3)c12 [Compound 01G10, O=C1NC=NC=2NC=C(C=3N=NN(C3)[C@@H]4C[C@@H]5[NH2+][C@H](C4)CC5)C12]	44	
NCCCCCCn1cc(-c2c[nH]c3nc[nH]c(=O)c23)nn1 [Compound 03H09, O=C1NC=NC=2NC=C(C=3N=NN(C3)CCCCCC[NH3+])C12]	50	
O=c1[nH]cnc2[nH]cc(-c3cn(-c4cccc5ncccc45)nn3)c12 [Compound 03B01, O=C1NC=NC=2NC=C(C=3N=NN(c4c5c(nccc5)ccc4)C3)C12]	20	
O=c1[nH]cnc2[nH]cc(-c3cn(Cc4nc5ccccc5o4)nn3)c12 [Compound 02G05, O=C1NC=NC=2NC=C(C=3N=NN(C3)CC=4Oc5c(N4)cccc5)C12]	38	
O=c1[nH]cnc2[nH]cc(-c3cn(C[C@H]4OCCOC45CCC5)nn3)c12 [Compound 01D02, O=C1NC=NC=2NC=C(C=3N=NN(C3)C[C@H]4OCCOC45CCC5)C12]	61	
O=c1[nH]cnc2[nH]cc(-c3cn(CC4CNC4)nn3)c12 [Compound 01B06, O=C1NC=NC=2NC=C(C=3N=NN(C3)CC4C[NH2+]C4)C12]	62	
CN(C)CCCn1cc(-c2c[nH]c3nc[nH]c(=O)c23)nn1 [Compound 01E08, O=C1NC=NC=2NC=C(C=3N=NN(C3)CCC[NH+](C)C)C12]	35	
C[C@H](N)Cn1cc(-c2c[nH]c3nc[nH]c(=O)c23)nn1 [Compound 03F01, O=C1NC=NC=2NC=C(C=3N=NN(C3)C[C@@H]([NH3+])C)C12]		56
O=c1[nH]cnc2[nH]cc(-c3cn(CCOc4ccc(Cl)cc4)nn3)c12 [Compound 03H10, Clc1ccc(OCCN2N=NC(C=3C=4C(=O)NC=NC4NC3)=C2)cc1]	85	
CC[C@H](c1ccccn1)n1cc(-c2c[nH]c3nc[nH]c(=O)c23)nn1 [Compound 04A02, O=C1NC=NC=2NC=C(C=3N=NN(C3)[C@@H](c4ncccc4)CC)C12]	15	
O=c1[nH]cnc2[nH]cc(-c3cn(-c4cccc(Cl)c4-c4nnn[nH]4)nn3)c12 [Compound 02G02, Clc1c(c(N2N=NC(C=3C=4C(=O)NC=NC4NC3)=C2)ccc1)C=5[N-]N=NN5]	15	
NC[C@H]1CCC[C@@H](Cn2cc(-c3c[nH]c4nc[nH]c(=O)c34)nn2)C1 [Compound 02A02, O=C1NC=NC=2NC=C(C=3N=NN(C3)C[C@H]4C[C@@H](C[NH3+])CCC4)C12]	31	
Cc1ccc2nc(Cn3cc(-c4c[nH]c5nc[nH]c(=O)c45)nn3)cn2c1 [Compound 01B02, O=C1NC=NC=2NC=C(C=3N=NN(C3)CC=4N=C5N(C4)C=C(C=C5)C)C12]	57	
NCCCCn1cc(-c2c[nH]c3nc[nH]c(=O)c23)nn1 [Compound 02E04, O=C1NC=NC=2NC=C(C=3N=NN(C3)CCCC[NH3+])C12]	16	
O=c1[nH]cnc2[nH]cc(-c3cn(CCOC4CCSCC4)nn3)c12 [Compound 01H07, S1CCC(OCCN2N=NC(C=3C=4C(=O)NC=NC4NC3)=C2)CC1]	54	
CO[C@H]1COC[C@@H]1n1cc(-c2c[nH]c3nc[nH]c(=O)c23)nn1 [Compound 04D03, O=C1NC=NC=2NC=C(C=3N=NN(C3)[C@@H]4[C@@H](OC)COC4)C12]	37	
O=c1[nH]cnc2[nH]cc(-c3cn([C@H]4CC[C@@H]4O)nn3)c12 [Compound 01D04, O=C1NC=NC=2NC=C(C=3N=NN(C3)[C@@H]4[C@@H](O)CC4)C12]	21	
